tested on: male Varroa mites; test: mating bioassay: male response to a female deutochrysalis dummy; assay type: in vivo, Varroa destructor; conditions: pure substances tested at 1, 10, 100 and 1000 ng
Method: Male and female Varroa mites were obtained from brood combs of heavily infested Apis mellifera colonies at the Apicultural State Institute, University of Hohenheim in Germany. Sexually mature males and freshly molted adult females as well as female deutochrysalis were collected from brood cells 8 to 9 days after capping. Female deutochrysales and freshly molted adult female mites were transferred into queen cell cups (Nicot System®, Karl Jenter, Metzingen) and kept at 28-30° C. for a maximum of 2 hours in order to prevent a decrease in vitality and mobility.
The responses of male Varroa mites to extracts, fractions, and pure substances were measured by using the “mating bioassay”: total extracts, fractions and pure substances were applied to a piece of filter paper (size: 1.5 mm×15 mm) with a 10 μl Hamilton syringe. The filter paper was folded in the middle and placed at the edge of the plastic cell cups (Nicot System®, Karl Jenter, Metzingen, 9 mm inner diameter) that served as a test arena. A living female deutochrysalis was placed at the bottom of the cell cup at 3.5 mm distance to the filter paper. […] After three tests, the dummies were replaced by new ones. The male responses towards the deutochrysalis were categorized as follows: (1) movement towards/around the deutochrysalis and palpating it, (2) mounting the dorsum of the deutochrysalis and (3) copulation attempts on the venter of the deutochrysalis. The duration of each of these behaviours was recorded over a period of 5 minutes using the Observer 2.0 software (Noldus Information Technology). All tests were performed at temperatures of 33-34° C. at the bottom of the test arena.
The extract was applied to the filter paper in doses of 2 female equivalents; in control tests the filter paper was treated with ether only. Pentane and ether fractions were tested in concentrations of 5 female equivalents in the same way. The higher concentration was applied in order to equalize possible losses of active substances during the column fractionation. Single substances that were identified from the active fraction (see 2.6) were purchased (Sigma Aldrich, GC grade), dissolved in diethyl ether and were tested in doses of 1 ng, 10 ng, 100 ng and 1000 ng.
Behavioural data were analyzed with the SPSS 15.0 statistics software. One Way ANOVA was performed to evaluate the male response toward the female deutochrysalis while being exposed to total extracts, fractions or pure substances. Differences between groups with p<0.05 were considered statistically significant.

`CCCCCCCC/C=C\CCCCCCCC(=O)OCC` [ethyl oleate] was tested. Which “copulatory responses / male mating behaviour to pure substances” value did it give?
Its value is “the same trend was evident, albeit without significant differences”.

How did the “dosage of maximum copulatory responses” value turn out when `CCCCCCCCCCCCCCCC(=O)OCC` [ethyl palmitate] was run?
Its value is 10 ng.

How did the “dosage of maximum copulatory responses” value turn out when `CCCCCCCCCCCCCCCCCC(=O)OCC` [ethyl stearate] was run?
Its value is 10 ng.

With `CCCCCCCC/C=C\CCCCCCCC(=O)O` [oleic acid] as the molecule, how does the “copulatory responses / male mating behaviour to pure substances” value read?
Its value is “highest copulatory responses”.

And the “dosage of lowest copulatory responses” value?
The value was 1000 ng.

And the “dosage of maximum copulatory responses” value?
Its value is 10 ng.

For `CCCCCCCCCCCCCCCC(=O)O` [palmitic acid], which “dosage of maximum copulatory responses” value is on record?
The value was 10 ng.

With `CCCCCCCCCCCCCCCCCC(=O)O` [stearic acid] as the molecule, how does the “copulatory responses / male mating behaviour to pure substances” value read?
The value was “lower compared to the other compounds”.

What about the “dosage of maximum copulatory responses” value of the same molecule?
Its value is 1 ng.

Source: patent US9326507B2, “Pheromone composition for treating Varroa mite infestation” (Universitaet Hohenheim, priority 2013, dated 2016)
